Data reported in patent publication US8158792B2, “Spiropiperidines for use as tryptase inhibitors” (Janssen Pharmaceutica N.V., priority 2007, dated 2012).

target: human lung tryptase; assay: β-Tryptase In-Vitro Enzyme Assay; type: biochemical; conditions: human lung tryptase 1 nM, substrate H-D-HHT-Ala-Arg-pNa 500 μM, pH 7.4, room temperature
Procedure: The β-tryptase assay was conducted with human lung tryptase (Cortex Biochem #CP3033) in an aqueous buffer (10 mM Tris, 10 mM Hepes, 150 mM NaCl, 0.1% PEG 8000, pH 7.4) using the chromogenic substrate H-D-HHT-Ala-Arg-pNa. […] Percent inhibition was calculated by comparing the initial reaction velocity of samples without inhibitor to those with inhibitor. The initial reaction velocities were analyzed using Microsoft Excel.

SMILES	IC50
Cc1ccc(/C=C/C(=O)N2CCC3(CC2)COc2ccc(CN)cc23)cc1 [Cpd 180, (E)-1-(4-methyl-phenylethenyl)carbonyl-5′-aminomethyl-spiro[piperidine-4,3′-(2H)-benzo[b]furan]]	780 nM
CSc1sc(C(=O)N2CCC3(CC2)COc2ccc(CN)cc23)c2c1C=CCC2 [Cpd 219, 1-(3-methylthio-7-hydro-6H-benzo[c]thien-1-yl)carbonyl-5′-aminomethyl-spiro[piperidine-4,3′-(2H)-benzo[b]furan]]	2.9 nM
NCc1ccc2c(c1)C1(CCN(C(=O)c3ccc(C#Cc4ccccc4)o3)CC1)CN2S(=O)(=O)c1ccsc1 [Cpd 359, 1-(5-phenylethynyl-furan-2-yl)carbonyl-1′-thien-3-ylsulfonyl-5′-aminomethyl-spiro[piperidine-4,3′-(2H)-indole]]	15 nM
NS(=O)(=O)NCc1ccc2c(c1)C1(CCN(C(=O)c3ccc(C#Cc4ccccc4)o3)CC1)CO2 [Cpd 305, 1-(5-phenylethynyl-furan-2-yl)carbonyl-5′-aminosulfonylaminomethyl-spiro[piperidine-4,3′-(2H)-benzo[b]furan]]	6300 nM
COC(=O)CN1CC2(CCN(C(=O)c3ccc(C#Cc4ccccc4)o3)CC2)c2cc(CN)ccc21 [Cpd 343, 1-(5-phenylethynyl-furan-2-yl)carbonyl-1′-[(methoxycarbonyl)methyl]-5′-aminomethyl-spiro[piperidine-4,3′-(2H)-indole]]	23 nM
NCc1ccc2c(c1)C1(CCN(C(=O)c3ccc(Cl)c(Cl)c3)C(=O)C1)CO2 (stereo not shown) [Cpd 262, 1-(3,4-dichlorophenyl)carbonyl-2-oxo-5′-aminomethyl-spiro[piperidine-4,3′-(2H)-benzo[b]furan]]	4500 nM
Cc1c(C(=O)N2CCC3(CC2)COc2ccc(CN)cc23)oc2cc(-c3ccccc3)ccc12 [Cpd 228, 1-(3-methyl-6-phenyl-benzo[b]furan-2-yl)carbonyl-5′-aminomethyl-spiro[piperidine-4,3′-(2H)-benzo[b]furan]]	37 nM
NCc1ccc2c(c1)C1(CCN(C(=O)c3ccc(-n4cc(-c5nc6ccccc6o5)cn4)cc3)CC1)CO2 [Cpd 17, 1-{4-[(4-benzoxazol-2-yl)-pyrazol-1-yl]-phenyl}carbonyl-5′-aminomethyl-spiro[piperidine-4,3′-(2H)-benzo[b]furan]]	290 nM
NCc1ccc2c(c1)C1(CCN(C(=O)C#Cc3ccccc3)CC1)CO2 [Cpd 296, 1-phenylethynylcarbonyl-5′-aminomethyl-spiro[piperidine-4,3′-(2H)-benzo[b]furan]]	210 nM
CC(=O)N/C(=C\c1ccccc1)C(=O)N1CCC2(CC1)COc1ccc(CN)cc12 [Cpd 205, (Z)-1-(1-methylcarbonylamino-2-phenylethenyl)carbonyl-5′-aminomethyl-spiro[piperidine-4,3′-(2H)-benzo[b]furan]]	740 nM
NCc1ccc2c(c1)C1(CCN(C(=O)c3ccc(C(=O)c4ccccc4)cc3)CC1)CO2 [Cpd 6, 1-(4-benzoyl-phenyl)carbonyl-5′-aminomethyl-spiro[piperidine-4,3′-(2H)-benzo[b]furan]]	5800 nM
NCc1ccc2c(c1)C1(CCN(C(=O)c3ccc(Oc4cc(C(F)(F)F)cc(C(F)(F)F)c4)cc3)CC1)CO2 [Cpd 279, 1-[4-(3,5-bis-trifluoromethyl-phenoxy)-phenyl]carbonyl-5′-aminomethyl-spiro[piperidine-4,3′-(2H)-benzo[b]furan]]	8000 nM
CSc1sc(C(=O)N2CCC3(CC2)COc2ccc(CN)cc23)c(Cl)c1S(=O)(=O)C(C)C [Cpd 157, 1-(3-chloro-4-isopropylsulfonyl-5-methylthio-thien-2-yl)carbonyl-5′-aminomethyl-spiro[piperidine-4,3′-(2H)-benzo[b]furan]]	17 nM
Cc1ccsc1/C=C/C(=O)N1CCC2(CC1)COc1ccc(CN)cc12 [Cpd 356, (E)-1-(3-methyl-thien-2-ylethenyl)carbonyl-5′-aminomethyl-spiro[piperidine-4,3′-(2H)-benzo[b]furan]]	180 nM
NCc1ccc2c(c1)C1(CCN(C(=O)c3ccc(-c4ccc(Cl)c(Cl)c4)o3)CC1)CO2 [Cpd 138, 1-[5-(3,4-dichloro-phenyl)-furan-2-yl]carbonyl-5′-aminomethyl-spiro[piperidine-4,3′-(2H)-benzo[b]furan]]	140 nM
COC(=O)N1CC2(CCN(C(=O)c3ccc(C#Cc4ccccc4)o3)CC2)c2cc(CN)ccc21 [Cpd 323, 1-(5-phenylethynyl-furan-2-yl)carbonyl-1′-methoxycarbonyl-5′-aminomethyl-spiro[piperidine-4,3′-(2H)-indole]]	110 nM

Results, then the compound that gave them:

IC50	SMILES
360 nM	NCc1ccc2c(c1)C1(CCN(C(=O)c3cc4ccccc4[nH]3)CC1)CO2 [Cpd 285, 1-1H-indol-2-ylcarbonyl-5′-aminomethyl-spiro[piperidine-4,3′-(2H)-benzo[b]furan]]
20 nM	NCc1ccc2c(c1)C1(CCN(C(=O)c3ccc(Cl)c(I)c3)CC1)CO2 [Cpd 34, 1-(3-iodo-4-chloro-phenyl)carbonyl-5′-aminomethyl-spiro[piperidine-4,3′-(2H)-benzo[b]furan]]
36 nM	Cc1ccc(C(=O)N2CCC3(CC2)COc2ccc(CN)cc23)cc1I [Cpd 50, 1-(3-iodo-4-methyl-phenyl)carbonyl-5′-aminomethyl-spiro[piperidine-4,3′-(2H)-benzo[b]furan]]
820 nM	NCc1ccc2c(c1)C1(CCN(C(=O)c3ccccc3)CC1)CO2 [Cpd 36, 1-phenylcarbonyl-5′-aminomethyl-spiro[piperidine-4,3′-(2H)-benzo[b]furan]]
910 nM	NCc1ccc2c(c1)C1(CCN(C(=O)c3ccc(C(F)(F)F)cc3)CC1)CO2 [Cpd 71, 1-(4-trifluoromethyl-phenyl)carbonyl-5′-aminomethyl-spiro[piperidine-4,3′-(2H)-benzo[b]furan]]
31 nM	NCc1ccc2c(c1)C1(CCN(C(=O)c3ccc(Cl)c(Cl)c3)CC1)CO2 [Cpd 1, 1-(3,4-dichlorophenyl)carbonyl-5′-aminomethyl-spiro[piperidine-4,3′-(2H)-benzo[b]furan]]
360 nM	NCc1ccc2c(c1)C1(CCN(C(=O)c3cccc(F)c3)CC1)CO2 [Cpd 42, 1-(3-fluoro-phenyl)carbonyl-5′-aminomethyl-spiro[piperidine-4,3′-(2H)-benzo[b]furan]]
150 nM	NCc1ccc2c(c1)C1(CCN(C(=O)c3ccc4cc(Br)ccc4c3)CC1)CO2 [Cpd 126, 1-(6-bromo-naphthalen-2-yl)carbonyl-5′-aminomethyl-spiro[piperidine-4,3′-(2H)-benzo[b]furan]]
710 nM	COC(=O)c1ccc(C(=O)N2CCC3(CC2)COc2ccc(CN)cc23)cc1 [Cpd 58, 1-(4-methoxycarbonyl-phenyl)carbonyl-5′-aminomethyl-spiro[piperidine-4,3′-(2H)-benzo[b]furan]]
3400 nM	NCc1ccc2c(c1)C1(CCN(C(=O)c3ccc4c(c3)C(=O)c3ccccc3-4)CC1)CO2 [Cpd 8, 1-(9-oxo-fluoren-2-yl)carbonyl-5′-aminomethyl-spiro[piperidine-4,3′-(2H)-benzo[b]furan]]
100 nM	NCc1ccc2c(c1)C1(CCN(C(=O)/C=C/c3ccccc3F)CC1)CO2 [Cpd 309, (E)-1-(2-fluoro-phenylethenyl)carbonyl-5′-aminomethyl-spiro[piperidine-4,3′-(2H)-benzo[b]furan]]
7500 nM	NCc1ccc2c(c1)C1(CCN(C(=O)c3ccc(OC(F)(F)F)cc3)CC1)CO2 [Cpd 61, 1-(4-trifluoromethoxy-phenyl)carbonyl-5′-aminomethyl-spiro[piperidine-4,3′-(2H)-benzo[b]furan]]
750 nM	NCc1ccc2c(c1)C1(CCN(C(=O)c3c[nH]c4ccccc34)CC1)CO2 [Cpd 236, 1-indol-3-ylcarbonyl-5′-aminomethyl-spiro[piperidine-4,3′-(2H)-benzo[b]furan]]
36 nM	CSc1ccc(C(=O)N2CCC3(CC2)COc2ccc(CN)cc23)s1 [Cpd 247, 1-(5-methylthio-thien-2-yl)carbonyl-5′-aminomethyl-spiro[piperidine-4,3′-(2H)-benzo[b]furan]]
41 nM	NCc1ccc2c(c1)C1(CCN(C(=O)c3cccc(SC(F)(F)F)c3)CC1)CO2 [Cpd 63, 1-(3-trifluoromethylthio-phenyl)carbonyl-5′-aminomethyl-spiro[piperidine-4,3′-(2H)-benzo[b]furan]]
250 nM	NCc1ccc2c(c1)C1(CCN(C(=O)c3ccc(F)cc3)CC1)CO2 [Cpd 43, 1-(4-fluoro-phenyl)carbonyl-5′-aminomethyl-spiro[piperidine-4,3′-(2H)-benzo[b]furan]]
450 nM	NCc1ccc2c(c1)C1(CCN(C(=O)Cc3ccc(I)cc3)CC1)CO2 [Cpd 96, 1-(4-iodo-benzyl)carbonyl-5′-aminomethyl-spiro[piperidine-4,3′-(2H)-benzo[b]furan]]
37 nM	NCc1ccc2c(c1)C1(CCN(C(=O)c3cc4ccccc4s3)CC1)CO2 [Cpd 110, 1-benzothien-2-ylcarbonyl-5′-aminomethyl-spiro[piperidine-4,3′-(2H)-benzo[b]furan]]
89 nM	NCc1ccc2c(c1)C1(CCN(C(=O)c3cc4sccc4s3)CC1)CO2 [Cpd 204, 1-thieno[3,2-b]thien-2-ylcarbonyl-5′-aminomethyl-spiro[piperidine-4,3′-(2H)-benzo[b]furan]]
360 nM	Cn1c(C(=O)N2CCC3(CC2)COc2ccc(CN)cc23)cc2ccccc21 [Cpd 193, 1-(1-methyl-indol-2-yl)carbonyl-5′-aminomethyl-spiro[piperidine-4,3′-(2H)-benzo[b]furan]]
250 nM	Cc1ccccc1/C=C/C(=O)N1CCC2(CC1)COc1ccc(CN)cc12 [Cpd 191, (E)-1-(2-methyl-phenylethenyl)carbonyl-5′-aminomethyl-spiro[piperidine-4,3′-(2H)-benzo[b]furan]]
